Data on 5 molecules can be found in the supplement of paper PMC10307832.

One experiment has as its system IA-LM. As to the kind of experiment: relative viability (nuclei count vs DMSO), 5 days (fraction); higher = more cells survive. The conditions noted are these: first compound 8 µM. In short, it runs like this:
(§1)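 Relative viability was taken as the ratio of nuclei in treated wells to nuclei in vehicle wells. Lung cancer cell lines in 1536-well plates received compounds by pin tool one day after seeding, either one drug alone or a fixed anchor-drug dose plus five library-drug doses (not always all listed) in √10 steps. Nuclei were counted on 4× images after 5 days of treatment, and values are medians of duplicate plates.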
Regarding `CCCCCCCCCCCC1=C(O)C(=O)C=C(O)C1=O` [Embelin] + O=C(CCCCCCC(=O)Nc1ccccc1)NO [Vorinostat] (partner 1 µM), the relative viability was 0.937.
Still for that read-out and setting: under `CCCCCCCCCCCC1=C(O)C(=O)C=C(O)C1=O` [Embelin] + C[C@]1(O)C[C@@H](c2nc(-c3ccc4ccc(-c5ccccc5)nc4c3)c3c(N)nccn32)C1 [Linsitinib] (partner 1 µM) stands 0.241.
The same measure, in the same setting: as for `CCCCCCCCCCCC1=C(O)C(=O)C=C(O)C1=O` [Embelin] + CC(C)C[C@H](NC(=O)[C@H](Cc1ccccc1)NC(=O)c1cnccn1)B(O)O [Bortezomib] (partner 0.002 µM), the figure is 0.381.
On the same count and under the same terms, under `CCCCCCCCCCCC1=C(O)C(=O)C=C(O)C1=O` [Embelin] + CS(=O)(=O)CCNCc1ccc(-c2ccc3ncnc(Nc4ccc(OCc5cccc(F)c5)c(Cl)c4)c3c2)o1 [Lapatinib] (partner 2 µM) stands 0.645; under `CCCCCCCCCCCC1=C(O)C(=O)C=C(O)C1=O` [Embelin] + C[C@@H](Oc1cc(-c2cnn(C3CCNCC3)c2)cnc1N)c1c(Cl)ccc(F)c1Cl [Crizotinib] (partner 1 µM), 0.743.

The next experiment deals with NCI-H1734. The description is as above. The conditions noted are these: first compound 0.08 µM. In short, it runs like this: as §1
Consider `CCCCCCCCCCCC1=C(O)C(=O)C=C(O)C1=O` [Embelin] + O=C(CCCCCCC(=O)Nc1ccccc1)NO [Vorinostat] (partner 1 µM), for which the relative viability worked out at 0.868.
`CCCCCCCCCCCC1=C(O)C(=O)C=C(O)C1=O` [Embelin] + C[C@]1(O)C[C@@H](c2nc(-c3ccc4ccc(-c5ccccc5)nc4c3)c3c(N)nccn32)C1 [Linsitinib] (partner 1 µM) registered a relative viability of 0.832.
As for `CCCCCCCCCCCC1=C(O)C(=O)C=C(O)C1=O` [Embelin] + CC(C)C[C@H](NC(=O)[C@H](Cc1ccccc1)NC(=O)c1cnccn1)B(O)O [Bortezomib] (partner 0.002 µM), the relative viability turned out to be 0.882.
`CCCCCCCCCCCC1=C(O)C(=O)C=C(O)C1=O` [Embelin] + CS(=O)(=O)CCNCc1ccc(-c2ccc3ncnc(Nc4ccc(OCc5cccc(F)c5)c(Cl)c4)c3c2)o1 [Lapatinib] (partner 2 µM) showed a relative viability of 0.963.
In turn, `CCCCCCCCCCCC1=C(O)C(=O)C=C(O)C1=O` [Embelin] + C[C@@H](Oc1cc(-c2cnn(C3CCNCC3)c2)cnc1N)c1c(Cl)ccc(F)c1Cl [Crizotinib] (partner 1 µM) had a relative viability of 0.71.

Staying with this experiment, now noted: first compound 0.8 µM.
`CCCCCCCCCCCC1=C(O)C(=O)C=C(O)C1=O` [Embelin] + O=C(CCCCCCC(=O)Nc1ccccc1)NO [Vorinostat] (partner 1 µM) returned a relative viability of 0.968.
`CCCCCCCCCCCC1=C(O)C(=O)C=C(O)C1=O` [Embelin] + C[C@]1(O)C[C@@H](c2nc(-c3ccc4ccc(-c5ccccc5)nc4c3)c3c(N)nccn32)C1 [Linsitinib] (partner 1 µM) had a relative viability of 1.05.
Still for that read-out and setting: under `CCCCCCCCCCCC1=C(O)C(=O)C=C(O)C1=O` [Embelin] + CC(C)C[C@H](NC(=O)[C@H](Cc1ccccc1)NC(=O)c1cnccn1)B(O)O [Bortezomib] (partner 0.002 µM) stands 1.35.
The same measure, in the same setting: under `CCCCCCCCCCCC1=C(O)C(=O)C=C(O)C1=O` [Embelin] + CS(=O)(=O)CCNCc1ccc(-c2ccc3ncnc(Nc4ccc(OCc5cccc(F)c5)c(Cl)c4)c3c2)o1 [Lapatinib] (partner 2 µM) stands 1.28.
As to `CCCCCCCCCCCC1=C(O)C(=O)C=C(O)C1=O` [Embelin] + C[C@@H](Oc1cc(-c2cnn(C3CCNCC3)c2)cnc1N)c1c(Cl)ccc(F)c1Cl [Crizotinib] (partner 1 µM), the relative viability is 0.825.

The experiment is the same for the next values; noted with them: first compound 2.53 µM.
For `CCCCCCCCCCCC1=C(O)C(=O)C=C(O)C1=O` [Embelin] + O=C(CCCCCCC(=O)Nc1ccccc1)NO [Vorinostat] (partner 1 µM), the relative viability was determined as 0.929.
Still for that read-out and setting: under `CCCCCCCCCCCC1=C(O)C(=O)C=C(O)C1=O` [Embelin] + C[C@]1(O)C[C@@H](c2nc(-c3ccc4ccc(-c5ccccc5)nc4c3)c3c(N)nccn32)C1 [Linsitinib] (partner 1 µM) stands 0.927.
`CCCCCCCCCCCC1=C(O)C(=O)C=C(O)C1=O` [Embelin] + CC(C)C[C@H](NC(=O)[C@H](Cc1ccccc1)NC(=O)c1cnccn1)B(O)O [Bortezomib] (partner 0.002 µM) had a relative viability of 1.14.
`CCCCCCCCCCCC1=C(O)C(=O)C=C(O)C1=O` [Embelin] + CS(=O)(=O)CCNCc1ccc(-c2ccc3ncnc(Nc4ccc(OCc5cccc(F)c5)c(Cl)c4)c3c2)o1 [Lapatinib] (partner 2 µM) showed a relative viability of 1.26.
On the same count and under the same terms, under `CCCCCCCCCCCC1=C(O)C(=O)C=C(O)C1=O` [Embelin] + C[C@@H](Oc1cc(-c2cnn(C3CCNCC3)c2)cnc1N)c1c(Cl)ccc(F)c1Cl [Crizotinib] (partner 1 µM) stands 0.693.

Staying with this experiment, now noted: first compound 8 µM.
Molecule `CCCCCCCCCCCC1=C(O)C(=O)C=C(O)C1=O` [Embelin] + O=C(CCCCCCC(=O)Nc1ccccc1)NO [Vorinostat] (partner 1 µM) displayed a relative viability of 0.749.
Same read-out and setting: under `CCCCCCCCCCCC1=C(O)C(=O)C=C(O)C1=O` [Embelin] + C[C@]1(O)C[C@@H](c2nc(-c3ccc4ccc(-c5ccccc5)nc4c3)c3c(N)nccn32)C1 [Linsitinib] (partner 1 µM) stands 0.876.
The same measure, in the same setting: as for `CCCCCCCCCCCC1=C(O)C(=O)C=C(O)C1=O` [Embelin] + CC(C)C[C@H](NC(=O)[C@H](Cc1ccccc1)NC(=O)c1cnccn1)B(O)O [Bortezomib] (partner 0.002 µM), the figure is 0.944; as for `CCCCCCCCCCCC1=C(O)C(=O)C=C(O)C1=O` [Embelin] + CS(=O)(=O)CCNCc1ccc(-c2ccc3ncnc(Nc4ccc(OCc5cccc(F)c5)c(Cl)c4)c3c2)o1 [Lapatinib] (partner 2 µM), 1.12.
Same read-out and setting: as for `CCCCCCCCCCCC1=C(O)C(=O)C=C(O)C1=O` [Embelin] + C[C@@H](Oc1cc(-c2cnn(C3CCNCC3)c2)cnc1N)c1c(Cl)ccc(F)c1Cl [Crizotinib] (partner 1 µM), the figure is 0.747.

The subject of the next experiment is HCC-366. The description is as above. Conditions: first compound 0.08 µM. Put shortly:
as §1
Take `CCCCCCCCCCCC1=C(O)C(=O)C=C(O)C1=O` [Embelin] + O=C(CCCCCCC(=O)Nc1ccccc1)NO [Vorinostat] (partner 1 µM): the relative viability stood at 0.409.
Still for that read-out and setting: as for `CCCCCCCCCCCC1=C(O)C(=O)C=C(O)C1=O` [Embelin] + C[C@]1(O)C[C@@H](c2nc(-c3ccc4ccc(-c5ccccc5)nc4c3)c3c(N)nccn32)C1 [Linsitinib] (partner 1 µM), the figure is 0.697; as for `CCCCCCCCCCCC1=C(O)C(=O)C=C(O)C1=O` [Embelin] + CC(C)C[C@H](NC(=O)[C@H](Cc1ccccc1)NC(=O)c1cnccn1)B(O)O [Bortezomib] (partner 0.002 µM), 1.05.
The same measure, in the same setting: as for `CCCCCCCCCCCC1=C(O)C(=O)C=C(O)C1=O` [Embelin] + CS(=O)(=O)CCNCc1ccc(-c2ccc3ncnc(Nc4ccc(OCc5cccc(F)c5)c(Cl)c4)c3c2)o1 [Lapatinib] (partner 2 µM), the figure is 1.08.
